From patent publication US20210346342A1, “COMBINATION OF AN UROLITHIN WITH AN IMMUNOTHERAPY TREATMENT” (Amazentis SA, priority 2019, published 2021)

Columns and labels:
[1] = Pharmacokinetic profile of orally administered urolithin A; type: in vivo; conditions: 250 mg to 1000 mg urolithin A compared with 2000 mg
[2] = test system: APTK organoid xenograft tumours; test: APTK organoid model combined with anti-PD1 injections; type: in vivo, mouse; conditions: Urolithin A 200 mpk with isotype control antibody vs anti-PD1 200 μg i.p. every third day, FIG. 8
Description: • C57BL/6 mice are transplanted subcutaneously with APTK organoids as described in Example 2 and either, fed with a Urolithin A 200 mpk or control diet (initiated one week prior to subcutaneous injection) and receive 4 intraperitoneal injections (200 μg every third day, starting day 5) of a blocking anti-PD1 or isotype control antibody (BioXCell).

[3] = test system: APTK organoid xenograft tumours; test: APTK organoid subcutaneous xenograft tumour model: tumour volume, CD3 and cleaved caspase 3 staining; type: in vivo, mouse
Text: • Colorectal cancer organoids (from here on also referred to as APTK organoids) are generated by the selective introduction of tumourigenic mutation in the gene APC (A), p53 (P), Tgf-beta1 (T) and K-ras (K). Since APTK organoids have been developed on a C57/BL6 genetic background, they can be transplanted to generate tumours in wild type BL6 mice with an intact immune system that allows to study the immune response towards the developing tumour. One week prior to subcutaneous transplantation, the mice are fed either a Urolithin A-containing or control diet. Tumour growth is assessed by calliper measurements. The resulting tumours are analysed histologically.

[4] = test system: AOM model of colorectal cancer; test: AOM model of colorectal cancer: lesion count/size (H&E) and anti-CD3 immunostaining of colonic mucosa; type: in vivo, mouse
Description: • A model of sporadic tumourigenesis can be obtained applying repetitively azoxymethane (AOM), without dextran sodium sulphate, to female wild-type FVB mice. In particular, tumours are induced by six weekly intraperitoneal injections of AOM (10 mg/kg) in wild type animals. Mice are analysed 18-24 weeks later. Urolithin A is applied in the diet at a dose of 50 or 200 mg/kg mouse a day (mpk), or control lab diet one week before starting the 6 injections of AOM, during the 6 weeks of injections with AOM, and for approximately 20 weeks following these injections, for a total of ca. 27-30 weeks. At the end of the treatment period, mice are euthanized by cervical dislocation for the collection of intestinal tissues.

[5] = test system: APTK organoid xenograft tumours; test: APTK organoid model with depletion of CD8+ cytotoxic T cells by anti-CD8; type: in vivo, mouse; conditions: UA 200 mpk diet plus anti-CD8 150 μg i.p. every second day, FIG. 7
Description: For this model, C57/BL6 were maintained on a Urolithin A 200 mpk or control diet. One week after starting the dietary intervention, mice were transplanted subcutaneously with APTK organoids as described above. Starting at day 3, these mice received 5 intraperitoneal injections (150 μg every second day) of an anti-CD8 or isotype control antibody (BioXCell) to deplete CD8+ cytotoxic T cells. As in the previous experiments, tumour growth is measured by calliper measurements.

[6] = test system: advanced, previously untreated non-small cell lung cancer; conditions: patients with advanced; cited from earlier work
[7] = test system: previously treated, unresectable melanoma; conditions: patients with previously treated; cited from earlier work

Row | Compound | pharmacokinetic profile [1] | tumour growth, Urolithin A alone versus anti-PD1 antibody treatment [2] | tumour volume ([3]; UA 200 mpk diet vs control diet, calliper, FIG. 4) | CD3 positive cells at the invasive margin ([3]; UA 200 mpk vs control, FIG. 5) | CD3 positive cells inside the core of the tumours ([3]; UA 200 mpk vs control, FIG. 5) | cleaved Casp3 staining (marker of apoptosis) ([3]; UA 200 mpk vs control, FIG. 6) | number of lesions ([4]; UA 200 mpk in diet vs control diet, H&E of colonic tissue, FIG. 2) | CD3 positive cells in colonic mucosa ([4]; UA 200 mpk vs control, anti-CD3 immunostaining, FIG. 3) | size of lesions ([4]; UA treated animals vs control diet, FIG. 2) | anti-tumoural effect (tumour volume) when CD8+ cytotoxic T cells are abrogated [5] | response rate [6] | progression free survival [7] | response rate [7]
1 | O=c1oc2cc(O)ccc2c2ccc(O)cc12 [Urolithin A] | surprisingly good pharmacokinetic profile | no difference was observed | significant lower tumour volume | less CD3 positive cells at the invasive margin | more CD3 positive cells inside the core of the tumours | significant increase of cleaved Casp3 staining | significantly decreases the number of lesions | tend to have more CD3 positive cells | appear to be of smaller size | anti-tumoural effect of UA is lost |  |  | 
2 | nivolumab |  |  |  |  |  |  |  |  |  |  | 30% | 9.7 months | 31%
3 | pembrolizumab: humanized monoclonal IgG4 antibody directed against human cell surface receptor PD-1 |  |  |  |  |  |  |  |  |  |  | 26% | 50 weeks | 34%
